In patent US20020136817A1 (priority 1999, published 2002):
Counter-ions that a name gives are not always drawn.

Assays:
calcium kidney stones = assay: Urinary risk of forming calcium kidney stones in individuals with oxalocalcium kidney stones, before and 15 days after treatment start; assay type: in vivo, human; details: for drop of the risk of forming calcium stones: 15 days after treatment start, citrate 6.48 g/day (Group II, potassium citrate tablets), phytate 120 mg/day (Group III, dietetic supplement)
Experimental: These individuals have been divided into three groups: 19 individuals with kidney stones (Group I), 38 individuals with kidney stones (Group II) and 17 individuals with kidney stones (Group III). The urinary risk to form calcium kidney stones was evaluated for each individual before being subjected to any pharmacological treatment. […] 15 days after treatment starting, the urinary risk of forming calcium kidney stones was evaluated again for each individual.

[1] = cited from earlier work

SMILES | drop of the risk of forming calcium stones (calcium kidney stones) [%] | effect on urine pH (calcium kidney stones; treatment of calcium kidney stones, compared with citrate) | levels of phytates in urine and blood without intake ([1]; after 10 days without a phytate intake) | maximum urinary excretions as share of the total intake ([1]; diet supplemented with products rich in phytates) | intake above which the amount excreted in urine does not increase ([1]; dose-dependent urinary excretion)
O=C(O)CC(O)(CC(=O)O)C(=O)O [citrate, potassium citrate, reference compound] | 52 |  |  |  | 
O=P(O)(O)O[C@H]1[C@H](OP(=O)(O)O)[C@@H](OP(=O)(O)O)[C@H](OP(=O)(O)O)[C@@H](OP(=O)(O)O)[C@H]1OP(=O)(O)O [phytate, inositol hexaphosphate] | 50 | does not cause increases of the urine pH | drop to practically undetectable values | 1-5% | 20.9 mg/kg of body weight
